Reference: ChEMBL document CHEMBL2321784, “Discovery of 5-benzyl-3-phenyl-4,5-dihydroisoxazoles and 5-benzyl-3-phenyl-1,4,2-dioxazoles as potent firefly luciferase inhibitors” (J Med Chem, 2013)
Active and inactive are the calls of the source. No cut-off for these calls is given here.

What was measured:
[1] = biological target: Luciferin 4-monooxygenase (Photinus pyralis) (UniProt P08659); test: Noncompetitive inhibition of recombinant firefly luciferase using luciferin as substrate at 1 to 100 nM after 30 min by Michaelis-Menten plot analysis
Sequence of Luciferin 4-monooxygenase (Photinus pyralis) (P08659 whole entry): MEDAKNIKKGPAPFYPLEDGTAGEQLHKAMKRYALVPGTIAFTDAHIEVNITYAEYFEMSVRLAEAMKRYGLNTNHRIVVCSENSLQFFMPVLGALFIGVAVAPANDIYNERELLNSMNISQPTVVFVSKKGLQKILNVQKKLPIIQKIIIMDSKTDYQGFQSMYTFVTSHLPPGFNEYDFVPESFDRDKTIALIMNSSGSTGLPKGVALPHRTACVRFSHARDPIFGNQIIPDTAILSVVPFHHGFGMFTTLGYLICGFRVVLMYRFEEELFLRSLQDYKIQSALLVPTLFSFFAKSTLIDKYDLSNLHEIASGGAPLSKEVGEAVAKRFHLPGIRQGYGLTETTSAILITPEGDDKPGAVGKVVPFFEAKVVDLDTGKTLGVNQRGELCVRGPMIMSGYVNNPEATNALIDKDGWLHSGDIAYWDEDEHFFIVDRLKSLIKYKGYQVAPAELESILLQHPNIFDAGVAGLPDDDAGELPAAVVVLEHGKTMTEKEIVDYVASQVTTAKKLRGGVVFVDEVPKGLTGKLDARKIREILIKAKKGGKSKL

[2] = biological target: Luciferin 4-monooxygenase (Photinus pyralis) (UniProt P08659); test: Noncompetitive inhibition of recombinant firefly luciferase using ATP as substrate at 1 to 100 nM after 30 mins by Michaelis-Menten plot analysis
[3] = biological target: Luciferin 4-monooxygenase (Photinus pyralis) (UniProt P08659); test: Inhibition of recombinant firefly luciferase at 10 uM after 20 mins by luminescence assay
[4] = biological target: Luciferin 4-monooxygenase (Photinus pyralis) (UniProt P08659); test: Inhibition of recombinant firefly luciferase at 1 nM after 20 mins by luminescence assay
[5] = biological target: Luciferin 4-monooxygenase (Photinus pyralis, UniProt P08659); test: Inhibition of recombinant firefly luciferase after 20 mins by luminescence assay
Sequence of Luciferin 4-monooxygenase (P08659 whole entry): as above

[6] = biological target: Luciferin 4-monooxygenase (Photinus pyralis) (UniProt P08659); test: Inhibition of recombinant firefly luciferase activity expressed in U87 cells at 10 uM after 2 mins; assay type: cell-based; conditions: U-87MG ATCC
[7] = biological target: Luciferin 4-monooxygenase (Photinus pyralis) (UniProt P08659); test: Inhibition of recombinant firefly luciferase activity expressed in U87 cells at 10 uM after 48 hrs; assay type: cell-based; conditions: U-87MG ATCC
[8] = Cytotoxicity against human U87 cells assessed as cell viability at 10 uM after 6 hrs by propidium iodide staining-based fluorescence assay; conditions: u-87mg atcc
[9] = biological target: T1, Coelenterazine h 2-monooxygenase (Renilla reniformis) (UniProt P27652); test: Inhibition of sea pansy luciferase after 20 mins by luminescence assay
T1 sequence (whole entry): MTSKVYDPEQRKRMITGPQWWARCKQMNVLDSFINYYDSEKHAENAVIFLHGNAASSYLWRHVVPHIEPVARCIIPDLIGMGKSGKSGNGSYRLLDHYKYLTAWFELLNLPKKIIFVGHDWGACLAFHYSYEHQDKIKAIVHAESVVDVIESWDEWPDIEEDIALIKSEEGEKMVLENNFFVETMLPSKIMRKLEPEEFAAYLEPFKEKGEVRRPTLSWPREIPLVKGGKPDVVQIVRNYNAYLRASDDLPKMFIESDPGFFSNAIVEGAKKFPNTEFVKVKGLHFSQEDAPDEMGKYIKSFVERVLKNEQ

[10] = biological target: Luciferin 4-monooxygenase (Photinus pyralis) (UniProt P08659); test: Reversible inhibition of recombinant firefly luciferase incubated for 30 mins measured post compound wash-out by luminescence assay
[11] = biological target: Luciferin 4-monooxygenase (Photinus pyralis) (UniProt P08659); test: Noncovalent inhibition of recombinant firefly luciferase assessed as inhibition of enzyme-compound adduct formation at 10 uM after 5 mins by SDS-PAGE based liquid scintillation counting analysis; conditions: tested as the 14C-labelled form

Structure (SMILES) | inhibition [1] | inhibition [2] | inhibition [3] [%] | inhibition [4] [%] | IC50 [5] [nM] | inhibition [6] | inhibition [7] | inhibition [9] | inhibition [10] | inhibition [11] | pIC50 [5] | Activity [8]
COc1ccc(C2=NO[C@H](Cc3ccccc3)C2)cc1 | Active | Active | 99.8 | 70.9 | 0.288 | Active | Active | – | – | – | – | –
N#Cc1ccc(C2=NOC(Cc3ccccc3)C2)cc1 (racemic) | – | – | – | – | – | – | – | – | – | Active | – | –
COc1ccc(C2=NO[C@@H](Cc3cccc(OC)c3)C2)cc1 | – | – | 25.5 | 4 | – | – | – | – | – | – | > 5 | –

Second part, led by results:

inhibition [1] | inhibition [2] | inhibition [3] [%] | inhibition [4] [%] | IC50 [5] [nM] | inhibition [6] | inhibition [7] | inhibition [9] | inhibition [10] | inhibition [11] | pIC50 [5] | Structure (SMILES) | Activity [8]
Active | Active | 99.8 | 72.8 | 0.257 | Active | Active | inactive | Active | – | – | Clc1ccc(C2=NO[C@H](Cc3ccccc3)C2)cc1 | Non-toxic
– | – | 97 | 13.4 | 87.1 | – | – | – | – | – | – | c1ccc(C[C@@H]2CC(c3ccc4ccccc4c3)=NO2)cc1 | –
